In patent US20130022620A1, “ASSAYS AND METHODS PERTAINING TO PRE-AMYLOID INTERMEDIATES” (priority 2011, published 2013):
Positions of bridges follow the written chain, without caps; N, C: chain ends. No end group written: not given here.

Legend:
[1] = test system: rat INS-1 β-cells; test: AlamarBlue cell viability assay of β-cells; format: cell-based; conditions: for onset and duration of toxicity compared to wild type: side-by-side with kinetics, 20 uM for the Ser-20 mutants
Experimental: Transformed rat insulinoma-1 (INS-1) β-cells (which express RAGE) are a pancreatic beta cell line commonly used for studies of h-IAPP induced toxicity. INS-1 cells were grown in RPMI 1640 supplemented with 10% fetal bovine serum (FBS), 11 mM glucose, 10 mM Hepes, 2 mM L-glutamine, 1 mM sodium pyruvate, 50 μM β-mercaptoethanol, 100 U/ml penicillin, and […] streptomycin. Cells were maintained at 37° C./5% CO2.
Cyto-toxicity was measured by AlamarBlue assay. INS-1 β-cells were seeded at a density of 30,000 cells per well in 96-well plates and cultured for 24 hours prior to stimulation with IAPP. Human and rat IAPP were dissolved and incubated in 16 mM tris HCl (pH 7.4, 25° C.) prior to cell stimulation. AlamarBlue was diluted ten-fold in culture media and cells were incubated for 5 hours at 37° C. Fluorescence (excitation 530; emission 590 nm) was measured on a Beckman Coulter DTX880 fluorescent plate reader. Values calculated were relative to those of control cells treated with buffer only. All values represent means±SEM (n=3).
Changes in cell morphology were examined by light microscopy to provide a second method of evaluating cell viability. Transformed rat INS-1 beta cells were photographed immediately prior to assessment of toxicity by Alamar blue cell viability assays. Images were taken using an Olympus BX-61 light microscope.

[2] = Thioflavin-T kinetics and TEM of amyloid formation by IAPP peptides; format: physicochemical
Experimental: Thioflavin-T fluorescence was used to monitor the time course of h-IAPP amyloid formation in the presence and absence of sRAGE. To identify which form(s) of h-IAPP interact with RAGE, sRAGE was added to h-IAPP at various time points during the h-IAPP amyloid formation reaction. Aliquots of the reaction mixture were analyzed by adding 100 uL aliquots of the amyloid formation reaction to 96-well plates containing 8 uL of 60 uM thioflavin-T solution at various incubation times after initiation of the amyloid formation reaction. Fluorescence was measured using a Beckman Coulter DTX880 fluorescent plate reader (excitation: 445 nm and emission: 485 nm). Final solution conditions contained 16 mM tris HCl and […] thioflavin-T (pH 7.4). […] All values represent means±SEM (n=3).
Transient kinetic species of h-IAPP were characterized by TEM. TEM images confirm the presence or absence of amyloid which were indicated by thioflavin-T fluorescence. Aliquots (4 μl) were removed from the reaction mixtures monitored by thioflavin-T assays, placed on a carbon-coated 200-mesh copper grid and negatively stained with saturated uranyl acetate. The samples were imaged with a Philips CM12 transmission electron microscope at the New York University electron microscopy core facility. Final solution conditions contained 16 mM tris HCl (pH 7.4).

[3] = molecular target: T1, sRAGE (Homo sapiens, UniProt Q15109); test: Tryptophan fluorescence quenching assay of sRAGE binding; conditions: sRAGE added at different time points of the reaction, 1:1 molar ratio
T1 construct: the soluble extracellular domain of RAGE (sRAGE); made in house; host or cells: Sf9 insect cells (baculovirus)
T1 sequence (Q15109 23-342): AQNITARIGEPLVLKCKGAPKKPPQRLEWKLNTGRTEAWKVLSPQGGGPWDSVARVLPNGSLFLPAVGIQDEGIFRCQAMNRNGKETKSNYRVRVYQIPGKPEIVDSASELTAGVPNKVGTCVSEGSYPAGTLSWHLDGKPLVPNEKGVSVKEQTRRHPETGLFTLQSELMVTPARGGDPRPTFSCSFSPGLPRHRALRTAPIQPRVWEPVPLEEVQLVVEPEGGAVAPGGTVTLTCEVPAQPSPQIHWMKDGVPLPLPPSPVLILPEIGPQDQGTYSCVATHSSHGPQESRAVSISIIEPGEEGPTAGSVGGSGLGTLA
From the text: The quenching of tryptophan fluorescence indicates binding. Fluorescence measurements were made at right angle in a […] dual path length quartz cuvette, using a Photon Technology International fluorescent spectrometer (280 nm excitation and 350 nm emission). Background fluorescence from buffer and IAPP peptides were negligible. The fluorescence quantum yield reported for each time point is an average of 20 reads over 20 seconds (2.5 nm bandwidth and 1 second integration time). Final solution conditions contained 16 mM tris HCl (pH 7.4).

[4] = test system: MCP-1 and IL-1β mRNA expression; test: qRT-PCR of MCP-1 and IL-1β mRNA in smooth muscle cells; format: cell-based, mouse; conditions: peptide stimulation
Experimental: Mouse vascular SMCs were cultured from the aortas of 10-week-old male mice using a modification of the procedure of Tarvo and Barret. See Tarvo et al. Blood Vessels. 1980; 17:110-116. SMCs were cultured following an explant protocol in accordance with institutional guidelines. Cultures were composed of 95% SM-α-actin positivity based on immunostaining.
(§1) Assays for qRT-PCR were carried out in 6-well plates. Total cellular RNA was isolated from h-IAPP stimulated β-cells using Qiagen RNA isolation kit, and the quality of RNA samples was determined by measurement of 260:280 ratio. Only samples with a 260:280 ratio of 2.0 or higher were used for reverse transcription. RNA samples were also treated by RNAse-free DNAse to avoid genomic DNA contamination. One microgram of RNA from each sample was reverse-transcribed to cDNA using MCP-1 and IL-1β primers. Non-template negative controls were also performed to monitor non-specific reactions. RNA isolated from rat IAPP and non-h-IAPP treated beta cells were used as negative controls. Equal amounts of RNA were used in each qRT-PCR reaction, and 18S was used as the internal control for amplification at the same time. qRT-PCR reactions were carried out using an Applied Biosystems 7500 RealTime PCR machine. The relative mRNA contents were normalized using 18S and quantification was carried out using qRT-PCR Quantifier Software.

[5] = molecular target: T1, sRAGE; test: Difference CD of IAPP peptides with sRAGE; format: binding; conditions: end point of the reactions
Experimental: CD measurements of IAPP, sRAGE and IAPP/sRAGE reactions were taken at various incubation times. Far-UV CD experiments monitor the development of secondary structure of h-IAPP species and give insight into the conformational requirement for IAPP/RAGE-binding. All CD experiments were performed on an Applied Photophysics circular dichroism spectrophotometer by directly transferring 300 μL of peptide solution from kinetic assays into a 0.1 cm quartz cuvette a few minutes prior to data collection. The CD spectra for sRAGE and tris HCl buffer was subtracted from all RAGE/IAPP mixtures. The final far-UV CD data was collected over the range of 190 to 260 nm. Final solution conditions contained 16 mM tris HCl (pH 7.4).

[6] = test system: MCP-1 and IL-1β mRNA expression; test: qRT-PCR of MCP-1 and IL-1β mRNA in β-cells; format: cell-based, rat; conditions: β-cells stimulated with peptide
Experimental: as §1

[7] = molecular target: T2, soluble RAGE (sRAGE), soluble extracellular domain of the receptor for advanced glycation endproducts (human, UniProt Q15109 23-342, glycosylated (heterogeneity in GlcN and GlcNAc glycosylation by MALDI-TOF)); test: tryptophan fluorescence quenching
T2 construct: The purification protocol gives two species, full length (36,254 Da) and C-truncated (34,710 Da); also called human sRAGE
T2 sequence (Q15109 23-342): as above
From the text: (E) Trp fluorescence quenching experiments.
Binding of ligands to this region should alter the environment of the tryptophans and lead to a change in their fluorescent quantum yield. Thus, the quenching of tryptophan fluorescence can be used to monitor binding.

[8] = molecular target: T2, soluble RAGE (sRAGE), soluble …; test: tryptophan fluorescence quenching; sRAGE added at different time points of the aggregation reaction

3×L-IAPP: h-IAPP triple mutant in which leucines replaced F15, F23 and Y37 (KCNTATCATQRLANLLVHSSNNLGAILSSTNVGSNTL-NH2; disulfide 2-7; N-terminus assumed; SMILES CC[C@H](C)[C@H](NC(=O)[C@H](C)NC(=O)CNC(=O)[C@H](CC(C)C)NC(=O)[C@H](CC(N)=O)NC(=O)[C@H](CC(N)=O)NC(=O)[C@H](CO)NC(=O)[C@H](CO)NC(=O)[C@H](Cc1c[nH]cn1)NC(=O)[C@@H](NC(=O)[C@H](CC(C)C)NC(=O)[C@H](CC(C)C)NC(=O)[C@H](CC(N)=O)NC(=O)[C@H](C)NC(=O)[C@H](CC(C)C)NC(=O)[C@H](CCCNC(=N)N)NC(=O)[C@H](CCC(N)=O)NC(=O)[C@@H](NC(=O)[C@H](C)NC(=O)[C@@H]1CSSC[C@H](NC(=O)[C@@H](N)CCCCN)C(=O)N[C@@H](CC(N)=O)C(=O)N[C@@H]([C@@H](C)O)C(=O)N[C@@H](C)C(=O)N[C@@H]([C@@H](C)O)C(=O)N1)[C@@H](C)O)C(C)C)C(=O)N[C@@H](CC(C)C)C(=O)N[C@@H](CO)C(=O)N[C@@H](CO)C(=O)N[C@H](C(=O)N[C@@H](CC(N)=O)C(=O)N[C@H](C(=O)NCC(=O)N[C@@H](CO)C(=O)N[C@@H](CC(N)=O)C(=O)N[C@H](C(=O)N[C@@H](CC(C)C)C(N)=O)[C@@H](C)O)C(C)C)[C@@H](C)O; UniProt P10997 34-70, looked up, variant F15L F23L Y37L)
onset and duration of toxicity compared to wild type [1]: longer duration of toxicity than observed with wild type | amyloid formation, slower than wild type ([2]; triple mutant, leucines at positions 15, 23 and 37): 6 fold

S20K-IAPP: h-IAPP with Ser-20 substituted by lysine (KCNTATCATQRLANFLVHSKNNFGAILSSTNVGSNTY-NH2; disulfide 2-7; N-terminus assumed; SMILES CC[C@H](C)[C@H](NC(=O)[C@H](C)NC(=O)CNC(=O)[C@H](Cc1ccccc1)NC(=O)[C@H](CC(N)=O)NC(=O)[C@H](CC(N)=O)NC(=O)[C@H](CCCCN)NC(=O)[C@H](CO)NC(=O)[C@H](Cc1c[nH]cn1)NC(=O)[C@@H](NC(=O)[C@H](CC(C)C)NC(=O)[C@H](Cc1ccccc1)NC(=O)[C@H](CC(N)=O)NC(=O)[C@H](C)NC(=O)[C@H](CC(C)C)NC(=O)[C@H](CCCNC(=N)N)NC(=O)[C@H](CCC(N)=O)NC(=O)[C@@H](NC(=O)[C@H](C)NC(=O)[C@@H]1CSSC[C@H](NC(=O)[C@@H](N)CCCCN)C(=O)N[C@@H](CC(N)=O)C(=O)N[C@@H]([C@@H](C)O)C(=O)N[C@@H](C)C(=O)N[C@@H]([C@@H](C)O)C(=O)N1)[C@@H](C)O)C(C)C)C(=O)N[C@@H](CC(C)C)C(=O)N[C@@H](CO)C(=O)N[C@@H](CO)C(=O)N[C@H](C(=O)N[C@@H](CC(N)=O)C(=O)N[C@H](C(=O)NCC(=O)N[C@@H](CO)C(=O)N[C@@H](CC(N)=O)C(=O)N[C@H](C(=O)N[C@@H](Cc1ccc(O)cc1)C(N)=O)[C@@H](C)O)C(C)C)[C@@H](C)O; UniProt P10997 34-70, looked up, variant S20K)
onset and duration of toxicity compared to wild type [1]: shifts the onset of toxicity to later time points and increases its duration | rate of aggregation compared to wild type ([2]; 20 uM, pH 7.4 25° C.): slower aggregation rate

rat IAPP: non-amyloidogenic, non-toxic rat IAPP used as negative control
binding to sRAGE (tryptophan fluorescence quenching) [3]: No binding | MCP-1 and IL-1β mRNA expression in smooth muscle cells [4]: rat IAPP does not | cell toxicity (AlamarBlue cell viability, light microscopy) ([1]; peptide incubated in buffer at room temperature for various times, then applied to INS-1 β-cells): No toxicity was observed at any time point | interaction with sRAGE (difference CD) [5]: does not interact | MCP-1 and IL-1β mRNA expression [6]: does not induce up-regulation | amyloid formation (thioflavin-T) ([2]; peptide by itself): does not form amyloid at any time point

B1: rat IAPP (peptide, UniProt P12969 38-74, looked up)
peptide: KCNTATCATQRLANFLVRSSNNLGPVLPPTNVGSNTY-NH2
modifications: disulfide 2-7
notes: mature; also called non-toxic rat IAPP; non-amyloidogenic rat IAPP
binding result [7]: no binding (tested: 20 µM rat IAPP, 1:1 molar ratio)

B2: I26P-IAPP (I26P point mutant of human IAPP) (peptide)
peptide: KCNTATCATQRLANFLVHSSNNFGAPLSSTNVGSNTY-NH2
modifications: disulfide 2-7; N-terminus assumed
SMILES: CC(C)C[C@H](NC(=O)[C@H](CCCNC(=N)N)NC(=O)[C@H](CCC(N)=O)NC(=O)[C@@H](NC(=O)[C@H](C)NC(=O)[C@@H]1CSSC[C@H](NC(=O)[C@@H](N)CCCCN)C(=O)N[C@@H](CC(N)=O)C(=O)N[C@@H]([C@@H](C)O)C(=O)N[C@@H](C)C(=O)N[C@@H]([C@@H](C)O)C(=O)N1)[C@@H](C)O)C(=O)N[C@@H](C)C(=O)N[C@@H](CC(N)=O)C(=O)N[C@@H](Cc1ccccc1)C(=O)N[C@@H](CC(C)C)C(=O)N[C@H](C(=O)N[C@@H](Cc1c[nH]cn1)C(=O)N[C@@H](CO)C(=O)N[C@@H](CO)C(=O)N[C@@H](CC(N)=O)C(=O)N[C@@H](CC(N)=O)C(=O)N[C@@H](Cc1ccccc1)C(=O)NCC(=O)N[C@@H](C)C(=O)N1CCC[C@H]1C(=O)N[C@@H](CC(C)C)C(=O)N[C@@H](CO)C(=O)N[C@@H](CO)C(=O)N[C@H](C(=O)N[C@@H](CC(N)=O)C(=O)N[C@H](C(=O)NCC(=O)N[C@@H](CO)C(=O)N[C@@H](CC(N)=O)C(=O)N[C@H](C(=O)N[C@@H](Cc1ccc(O)cc1)C(N)=O)[C@@H](C)O)C(C)C)[C@@H](C)O)C(C)C
notes: also called nontoxic, aggregation-prone I26P-IAPP variant of h-IAPP
binding result [8]: no binding
